The results in this text go back to PMC5218480 (PLoS ONE, 2017).

For the experiment, the system named is MV-4-11 cells. Put plainly: Gene expression microarray analysis (Affymetrix PrimeView) and GSEA. It is filed as cell-based, human. Also on record: RFU PODN (11730768_x_at) / Fold change /veh PODN (11730768_x_at) / RFU LINC00158 (11744669_a_at) / Fold change /veh LINC00158 (11744669_a_at) / RFU DUSP10 (11751237_a_at) / Fold change /veh DUSP10 (11751237_a_at) / RFU ID3 (11757404_x_at) / Fold change /veh ID3 (11757404_x_at) / RFU PLEKHG5 (11737974_s_at) / Fold change /veh PLEKHG5 (11737974_s_at) / RFU LRRC4B (11730491_at) / Fold change /veh LRRC4B (11730491_at) / RFU GIMAP4 (11747438_a_at) / Fold change /veh GIMAP4 (11747438_a_at) / RFU KRT8 (11758183_x_at) / Fold change /veh KRT8 (11758183_x_at) / RFU CNN1 (11734310_a_at) / Fold change /veh CNN1 (11734310_a_at) / RFU VPS37D (11726825_at) / Fold change /veh VPS37D (11726825_at) / RFU C10orf10 (11716522_x_at) / Fold change /veh C10orf10 (11716522_x_at) / RFU KIR2DL2 /// KIR2DL4 /// KIR2DL5A /// KIR2DL5B /// KIR2DS1 /// KIR2DS2 /// KIR2DS3 /// KIR2DS4 /// KIR3DL3 /// KIR3DL3 /// KIR3DS1 (11738374_at) / Fold change /veh KIR2DL2 /// KIR2DL4 /// KIR2DL5A /// KIR2DL5B /// KIR2DS1 /// KIR2DS2 /// KIR2DS3 /// KIR2DS4 /// KIR3DL3 /// KIR3DL3 /// KIR3DS1 (11738374_at) / RFU C1QL1 (11718748_at) / Fold change /veh C1QL1 (11718748_at) / RFU TMPRSS4 (11747572_a_at) / Fold change /veh TMPRSS4 (11747572_a_at) / RFU HAMP (11756126_x_at) / Fold change /veh HAMP (11756126_x_at) / RFU RNFT2 (11725882_a_at) / Fold change /veh RNFT2 (11725882_a_at) / RFU NR4A2 (11747474_a_at) / Fold change /veh NR4A2 (11747474_a_at) / RFU ABCC12 (11746883_a_at) / Fold change /veh ABCC12 (11746883_a_at) / RFU TMEM136 (11760407_x_at) / Fold change /veh TMEM136 (11760407_x_at) / RFU CLDN22 /// WWC2 (11732394_at) / Fold change /veh CLDN22 /// WWC2 (11732394_at) / RFU HLA-DPB1 (11760878_x_at) / Fold change /veh HLA-DPB1 (11760878_x_at) / RFU SPINT1 (11716480_a_at) / Fold change /veh SPINT1 (11716480_a_at) / RFU GAP43 (11754022_s_at) / Fold change /veh GAP43 (11754022_s_at) / RFU A4GNT (11735810_at) / Fold change /veh A4GNT (11735810_at) / RFU PRB3 (11715151_x_at) / Fold change /veh PRB3 (11715151_x_at) / RFU TUBB4B (11761932_at) / Fold change /veh TUBB4B (11761932_at) / RFU CAPN14 (11732068_a_at) / Fold change /veh CAPN14 (11732068_a_at) / RFU TMCC2 (11721928_a_at) / Fold change /veh TMCC2 (11721928_a_at) / RFU IRGQ (11745062_a_at) / Fold change /veh IRGQ (11745062_a_at) / RFU FAM174B (11720279_a_at) / Fold change /veh FAM174B (11720279_a_at) / RFU TMPRSS4 (11748680_a_at) / Fold change /veh TMPRSS4 (11748680_a_at) / RFU FAM212B (11763350_a_at) / Fold change /veh FAM212B (11763350_a_at) / RFU PLEKHG5 (11743358_a_at) / Fold change /veh PLEKHG5 (11743358_a_at) / RFU ZSCAN30 (11745921_a_at) / Fold change /veh ZSCAN30 (11745921_a_at) / RFU CMKLR1 (11741424_a_at) / Fold change /veh CMKLR1 (11741424_a_at) / RFU LOC101060620 /// MAPK8IP1 (11723275_at) / Fold change /veh LOC101060620 /// MAPK8IP1 (11723275_at) / RFU SPTSSB (11747773_x_at) / Fold change /veh SPTSSB (11747773_x_at) / RFU PRSS12 (11739890_at) / Fold change /veh PRSS12 (11739890_at) / RFU BIN1 (11741810_x_at) / Fold change /veh BIN1 (11741810_x_at) / RFU WNT11 (11732464_a_at) / Fold change /veh WNT11 (11732464_a_at) / RFU C10orf10 (11716521_a_at) / Fold change /veh C10orf10 (11716521_a_at) / RFU C5orf56 (11738089_at) / Fold change /veh C5orf56 (11738089_at) / RFU CYB561 (11721691_x_at) / Fold change /veh CYB561 (11721691_x_at) / RFU ANKRD19P (11752326_a_at) / Fold change /veh ANKRD19P (11752326_a_at) / RFU OR2T12 /// OR2T33 /// OR2T8 (11738714_s_at) / Fold change /veh OR2T12 /// OR2T33 /// OR2T8 (11738714_s_at) / RFU VCAN (11748164_a_at) / Fold change /veh VCAN (11748164_a_at) / RFU JSRP1 (11732532_at) / Fold change /veh JSRP1 (11732532_at) / RFU KRTAP10-11 (11738290_x_at) / Fold change /veh KRTAP10-11 (11738290_x_at) / RFU MYO3A (11730013_a_at) / Fold change /veh MYO3A (11730013_a_at) / RFU EBF3 (11725865_a_at) / Fold change /veh EBF3 (11725865_a_at) / RFU CAMK2N1 (11719241_x_at) / Fold change /veh CAMK2N1 (11719241_x_at) / RFU C5orf56 (11738088_a_at) / Fold change /veh C5orf56 (11738088_a_at) / RFU OLFML3 (11715873_a_at) / Fold change /veh OLFML3 (11715873_a_at) / RFU LOC100653217 /// NTM (11731650_a_at) / Fold change /veh LOC100653217 /// NTM (11731650_a_at) / RFU MAPK11 (11762145_a_at) / Fold change /veh MAPK11 (11762145_a_at) / RFU FIZ1 (11724087_x_at) / Fold change /veh FIZ1 (11724087_x_at) / RFU OASL (11726364_x_at) / Fold change /veh OASL (11726364_x_at) / RFU SOX15 (11748057_x_at) / Fold change /veh SOX15 (11748057_x_at) / RFU CD79A (11719716_a_at) / Fold change /veh CD79A (11719716_a_at) / RFU HIST1H1D (11736915_at) / Fold change /veh HIST1H1D (11736915_at) / RFU CASKIN2 (11723855_a_at) / Fold change /veh CASKIN2 (11723855_a_at) / RFU LOC730098 (11760151_x_at) / Fold change /veh LOC730098 (11760151_x_at) / RFU OR4N2 (11742367_at) / Fold change /veh OR4N2 (11742367_at) / RFU PRRT2 (11749266_a_at) / Fold change /veh PRRT2 (11749266_a_at) / RFU SNX32 (11753110_a_at) / Fold change /veh SNX32 (11753110_a_at) / RFU CDHR5 (11726645_a_at) / Fold change /veh CDHR5 (11726645_a_at) / RFU RCAN1 (11760418_a_at) / Fold change /veh RCAN1 (11760418_a_at) / RFU FAM167A (11723789_a_at) / Fold change /veh FAM167A (11723789_a_at) / RFU FAM26E (11764081_at) / Fold change /veh FAM26E (11764081_at) / RFU ISYNA1 (11749810_s_at) / Fold change /veh ISYNA1 (11749810_s_at) / RFU ACY1 (11761880_at) / Fold change /veh ACY1 (11761880_at) / RFU 11764098_at / Fold change /veh 11764098_at / RFU SAMD14 (11745864_x_at) / Fold change /veh SAMD14 (11745864_x_at) / RFU NPB (11741838_a_at) / Fold change /veh NPB (11741838_a_at) / RFU TMPRSS6 (11731388_a_at) / Fold change /veh TMPRSS6 (11731388_a_at) / RFU KRTAP10-2 (11738614_at) / Fold change /veh KRTAP10-2 (11738614_at) / RFU ARHGAP8 /// PRR5-ARHGAP8 (11727945_x_at) / Fold change /veh ARHGAP8 /// PRR5-ARHGAP8 (11727945_x_at) / RFU KRTAP5-7 /// NADSYN1 (11734609_at) / Fold change /veh KRTAP5-7 /// NADSYN1 (11734609_at) / RFU RASL12 (11751679_a_at) / Fold change /veh RASL12 (11751679_a_at) / RFU CDKN2B (11736163_a_at) / Fold change /veh CDKN2B (11736163_a_at) / RFU PRF1 (11729649_at) / Fold change /veh PRF1 (11729649_at) / RFU, ZNF638 /// ZNF638-IT1 / Fold change vs veh, ZNF638 /// ZNF638-IT1 / RFU, PANK3 / Fold change vs veh, PANK3 / RFU, SH3YL1 / Fold change vs veh, SH3YL1 / RFU, ZEB2 / Fold change vs veh, ZEB2 / RFU, NRIP1 / Fold change vs veh, NRIP1 / RFU, PTTG1IP / Fold change vs veh, PTTG1IP / RFU, CAPN2 / Fold change vs veh, CAPN2 / RFU, MED14 / Fold change vs veh, MED14 / RFU, SNORA58 / Fold change vs veh, SNORA58 / RFU, C1orf63 / Fold change vs veh, C1orf63 / RFU, LRRFIP1 / Fold change vs veh, LRRFIP1 / RFU, NDUFAF7 / Fold change vs veh, NDUFAF7 / RFU, SLC12A2 / Fold change vs veh, SLC12A2 / RFU, IBTK / Fold change vs veh, IBTK / RFU, ESF1 / Fold change vs veh, ESF1 / Fold change vs veh, TMEM50B / RFU, TAOK1 / Fold change vs veh, TAOK1 / RFU, ACBD3 / Fold change vs veh, ACBD3 / RFU, TMA16 / Fold change vs veh, TMA16 / RFU, RWDD3 / Fold change vs veh, RWDD3 / RFU, BCAT1 / Fold change vs veh, BCAT1 / RFU, EDEM3 / Fold change vs veh, EDEM3 / RFU, TMEM33 / Fold change vs veh, TMEM33 / RFU, WDR75 / Fold change vs veh, WDR75 / RFU, AHCTF1 / Fold change vs veh, AHCTF1 / RFU, TFRC / Fold change vs veh, TFRC / RFU, ZDHHC17 / Fold change vs veh, ZDHHC17 / RFU, NOM1 / Fold change vs veh, NOM1 / RFU, ARL8B / Fold change vs veh, ARL8B / RFU, ZBTB11 / Fold change vs veh, ZBTB11 / RFU, TAMM41 / Fold change vs veh, TAMM41 / RFU, KIAA1704 /// LOC100996395 / Fold change vs veh, KIAA1704 /// LOC100996395 / RFU, ING1 / Fold change vs veh, ING1 / RFU, TRMT61B / Fold change vs veh, TRMT61B / RFU, FUBP3 / Fold change vs veh, FUBP3 / RFU, TP53 / Fold change vs veh, TP53 / RFU, TNKS2 / Fold change vs veh, TNKS2 / RFU, ZFP14 / Fold change vs veh, ZFP14 / RFU, ACTR2 / Fold change vs veh, ACTR2 / RFU, PPP3R1 / Fold change vs veh, PPP3R1 / RFU, PIK3R1 / Fold change vs veh, PIK3R1 / RFU, HNRNPA1 / Fold change vs veh, HNRNPA1 / RFU, RNF170 / Fold change vs veh, RNF170 / RFU, ZNF28 / Fold change vs veh, ZNF28 / RFU, RNGTT / Fold change vs veh, RNGTT / RFU, OGT / Fold change vs veh, OGT / RFU, BRD1 / Fold change vs veh, BRD1 / RFU, MARS / Fold change vs veh, MARS / RFU, ZNF655 / Fold change vs veh, ZNF655 / RFU, FAHD1 / Fold change vs veh, FAHD1 / RFU, BDP1 / Fold change vs veh, BDP1 / RFU, LRRCC1 / Fold change vs veh, LRRCC1 / RFU, ARID1A / Fold change vs veh, ARID1A / RFU, ZNF146 / Fold change vs veh, ZNF146 / RFU, ZNF330 / Fold change vs veh, ZNF330 / RFU, GPN3 / Fold change vs veh, GPN3 / RFU, C9orf123 / Fold change vs veh, C9orf123 / RFU, N4BP2L2 / Fold change vs veh, N4BP2L2 / RFU, ARFIP1 / Fold change vs veh, ARFIP1 / RFU, FAM179B / Fold change vs veh, FAM179B / RFU, BCL10 / Fold change vs veh, BCL10 / RFU, UHRF1BP1L / Fold change vs veh, UHRF1BP1L / RFU, BET1 / Fold change vs veh, BET1 / RFU, CNOT2 / Fold change vs veh, CNOT2 / RFU, ZNF268 / Fold change vs veh, ZNF268 / Fold change vs veh, ZNF507 / RFU, DGCR2 / Fold change vs veh, DGCR2 / RFU, WDSUB1 / Fold change vs veh, WDSUB1 / Fold change vs veh, HSP90B1 /// MIR3652 / RFU, ADSS / Fold change vs veh, ADSS / RFU, GK / Fold change vs veh, GK / RFU, ZNF148 / Fold change vs veh, ZNF148 / RFU, TAF9 / Fold change vs veh, TAF9 / RFU, SLC1A5 / Fold change vs veh, SLC1A5 / RFU, SLMO2 / Fold change vs veh, SLMO2 / RFU, ABCC4 / Fold change vs veh, ABCC4 / RFU, LOC101060439 /// RAP1B / Fold change vs veh, LOC101060439 /// RAP1B / RFU, RFX7 / Fold change vs veh, RFX7 / RFU, GTPBP10 / Fold change vs veh, GTPBP10 / RFU, CNEP1R1 / Fold change vs veh, CNEP1R1 / RFU, BIVM-ERCC5 /// ERCC5 / Fold change vs veh, BIVM-ERCC5 /// ERCC5 / RFU, ILF3 / Fold change vs veh, ILF3 / RFU 11762660_at / Fold change /veh 11762660_at / RFU VCAN (11757783_s_at) / Fold change /veh VCAN (11757783_s_at) / RFU DDX43 (11728927_at) / Fold change /veh DDX43 (11728927_at) / RFU KRT8 (11758188_x_at) / Fold change /veh KRT8 (11758188_x_at) / RFU NKD1 (11759106_at) / Fold change /veh NKD1 (11759106_at) / RFU SRD5A1 (11742802_a_at) / Fold change /veh SRD5A1 (11742802_a_at) / RFU TPSAB1 /// TPSB2 (11721975_s_at) / Fold change /veh TPSAB1 /// TPSB2 (11721975_s_at) / RFU GSTM3 (11746129_a_at) / Fold change /veh GSTM3 (11746129_a_at) / RFU IL23R (11737362_x_at) / Fold change /veh IL23R (11737362_x_at) / RFU TMEM51 (11727254_a_at) / Fold change /veh TMEM51 (11727254_a_at) / RFU PIWIL2 (11732686_x_at) / Fold change /veh PIWIL2 (11732686_x_at) / RFU ORM1 (11744905_x_at) / Fold change /veh ORM1 (11744905_x_at) / RFU CCDC152 (11743942_at) / Fold change /veh CCDC152 (11743942_at) / RFU ECM1 (11717891_a_at) / Fold change /veh ECM1 (11717891_a_at) / RFU IL23R (11748794_a_at) / Fold change /veh IL23R (11748794_a_at) / RFU TNFAIP8L3 (11732012_x_at) / Fold change /veh TNFAIP8L3 (11732012_x_at) / RFU MBOAT4 (11741988_at) / Fold change /veh MBOAT4 (11741988_at) / RFU 11764193_at / Fold change /veh 11764193_at / RFU TMEM53 (11763286_at) / Fold change /veh TMEM53 (11763286_at) / RFU MAGEB2 (11727129_at) / Fold change /veh MAGEB2 (11727129_at) / RFU TMEM200A (11744735_a_at) / Fold change /veh TMEM200A (11744735_a_at) / RFU CCDC152 (11751479_a_at) / Fold change /veh CCDC152 (11751479_a_at) / RFU FAM211A (11726209_a_at) / Fold change /veh FAM211A (11726209_a_at) / RFU RGS16 (11746705_a_at) / Fold change /veh RGS16 (11746705_a_at) / RFU VCAN (11755009_s_at) / Fold change /veh VCAN (11755009_s_at) / RFU RHOB (11743442_s_at) / Fold change /veh RHOB (11743442_s_at) / RFU RGS16 (11720943_a_at) / Fold change /veh RGS16 (11720943_a_at) / RFU RGS16 (11720944_at) / Fold change /veh RGS16 (11720944_at) / RFU, VPS4B / Fold change vs veh, VPS4B / RFU, CREB1 / Fold change vs veh, CREB1 / RFU, DNAJC13 / Fold change vs veh, DNAJC13 / RFU, GNAQ / Fold change vs veh, GNAQ / RFU, CDK5R1 / Fold change vs veh, CDK5R1 / RFU, ZRANB3 / Fold change vs veh, ZRANB3 / RFU, CUL4A / Fold change vs veh, CUL4A / RFU, CCNY / Fold change vs veh, CCNY / RFU, UFL1 / Fold change vs veh, UFL1 / RFU, COG3 / Fold change vs veh, COG3 / RFU, DIAPH2 / Fold change vs veh, DIAPH2 / RFU, SKA2 / Fold change vs veh, SKA2 / RFU, AFF3 / Fold change vs veh, AFF3 / RFU, LMF1 / Fold change vs veh, LMF1 / RFU, IPO11 / Fold change vs veh, IPO11 / RFU, DFFB / Fold change vs veh, DFFB / RFU, FOXP1 / Fold change vs veh, FOXP1 / RFU, CARD8 / Fold change vs veh, CARD8 / RFU, STRN3 / Fold change vs veh, STRN3 / RFU, ADK / Fold change vs veh, ADK / RFU, RASSF2 / Fold change vs veh, RASSF2 / RFU, WIPF1 / Fold change vs veh, WIPF1 / RFU, LARP1B / Fold change vs veh, LARP1B / RFU, RASA1 / Fold change vs veh, RASA1 / RFU, RB1 / Fold change vs veh, RB1 / RFU, PPFIA1 / Fold change vs veh, PPFIA1 / RFU, MAT2A / Fold change vs veh, MAT2A / RFU, CCT5 / Fold change vs veh, CCT5 / RFU, WDR92 / Fold change vs veh, WDR92 / RFU, CUX1 / Fold change vs veh, CUX1 / RFU, TTC7A / Fold change vs veh, TTC7A / RFU, TMEM135 / Fold change vs veh, TMEM135 / RFU, DEPTOR / Fold change vs veh, DEPTOR / RFU, CPM / Fold change vs veh, CPM / RFU, DNAJB6 / Fold change vs veh, DNAJB6 / RFU, CACNA2D3 / Fold change vs veh, CACNA2D3 / RFU, DTX4 / Fold change vs veh, DTX4 / RFU, TFCP2 / Fold change vs veh, TFCP2 / RFU, GMCL1 /// GMCL1P1 / Fold change vs veh, GMCL1 /// GMCL1P1 / RFU, AEBP2 / Fold change vs veh, AEBP2 / RFU, SNHG1 /// SNORD22 /// SNORD25 /// SNORD26 /// SNORD27 /// SNORD28 /// SNORD29 /// SNORD31 / Fold change vs veh, SNHG1 /// SNORD22 /// SNORD25 /// SNORD26 /// SNORD27 /// SNORD28 /// SNORD29 /// SNORD31 / Fold change (Aza/veh), C12orf56 (ProbeSet 11735607_a_at) / Fold change (ACY-1035/veh), C12orf56 (ProbeSet 11735607_a_at) / Fold change (Aza/veh), FGFR1OP (ProbeSet 11751329_s_at) / Fold change (ACY-1035/veh), FGFR1OP (ProbeSet 11751329_s_at) / Fold change (Aza/veh), VPS36 (ProbeSet 11739960_a_at) / Fold change (ACY-1035/veh), VPS36 (ProbeSet 11739960_a_at) / RFU SYPL1 (11715823_x_at) / Fold change /veh SYPL1 (11715823_x_at) / RFU IGFBP7 (11715501_s_at) / Fold change /veh IGFBP7 (11715501_s_at) / RFU REEP3 (11722064_at) / Fold change /veh REEP3 (11722064_at) / RFU IGLL1 (11728026_x_at) / Fold change /veh IGLL1 (11728026_x_at): dose or concentration left out as unconfirmed. The following applies: MV-4-11 cells, 48 hours.

In the case of `Nc1ccc(-c2cccs2)cc1NC(=O)c1ccc2c(c1)cc(C1CC1)n2CCN1CCOCC1` [ACY-1035], the “Fold change /veh TMPRSS4 (11748680_a_at)” value is reported as 1.05.
